Experimental data from patent publication US20100062995A1, “Transition state structure of human 5'methylthioadenosine phosphorylase” (priority 2006, published 2010).
“And” between values parts separate entries of the source, which are not always exact repeats. Identical values can stand only once. Marks after values point to notes of the source that are not given here.

Legend:
human MTAP [1] = target: T1, human MTAP (Homo sapiens, UniProt Q13126); conditions: cited from earlier work; for kcat: human MTAP (Kung et al., 2005); for fold increase in Km relative to MTA: human MTAP
T1 construct: His6 (N); made in house; host or cells: E. coli (pQE32 vector)
T1 sequence (Q13126 1-283): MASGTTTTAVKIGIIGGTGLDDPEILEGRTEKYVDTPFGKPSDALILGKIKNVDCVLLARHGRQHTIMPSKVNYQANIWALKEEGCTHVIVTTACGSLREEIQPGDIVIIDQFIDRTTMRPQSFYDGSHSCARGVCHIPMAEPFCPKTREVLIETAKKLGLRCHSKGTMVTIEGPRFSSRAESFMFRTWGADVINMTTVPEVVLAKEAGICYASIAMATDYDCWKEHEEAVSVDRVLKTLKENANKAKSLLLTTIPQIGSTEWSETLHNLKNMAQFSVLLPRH

human MTAP [2] = target: T1, human MTAP; assay: Kinetic analysis with substrate analogues (kcat, Km); format: biochemical
From the text: Kinetic analysis with substrate analogues provide additional evidence concerning the importance of the 3′-hydroxyl in catalysis (Kung et al., 2005). […] The formation of an oxyanion from ionization of the 3′-hydroxyl further stabilizes the positive charge at the anomeric carbon.

human MTAP [3] = target: T1, human MTAP; assay: Measurement of kinetic isotope effects on arsenolysis of MTA; format: biochemical; conditions: pH 7.5, arsenolysis of MTA; for KIE (experimental): corrected to 0% substrate depletion; for Intrinsic KIEs: observed KIE corrected for forward commitment
Procedure: Measurement of kinetic isotope effects. The KIEs were measured by mixing ^3H and ^14C labeled substrates with ^3H:^14C in 4:1 ratio. […] After 20-30% completion of the reaction, 750 μL of the reaction was resolved on charcoal-Sepharose (acid-washed powdered charcoal and Sepharose in 1:4 ratio made into a slurry in 1 mM 5-methylthioribose (MTR) and settled in Pasteur pipettes). The remainder of the reaction mixture was allowed to react to completion and then applied to the column. Columns were washed with 2 volumes of 1 mM MTR and radioactive methylthioribose was eluted with 6 volumes of 15 mM MTR containing 50% ethanol. Each 1.0 mL of eluate was mixed with 9.0 mL scintillation fluid and counted for at least 3 cycles at 10 minutes per cycle. The ^3H to ^14C ratio was determined for partial and complete reactions and the KIEs were corrected to 0% hydrolysis by the equation: […]
where f is the fraction of reaction progress and Rf and Ro are ratios of heavy to light isotope at partial and total completion of reaction, respectively.
Experimental kinetic isotope effects (KIEs) and commitment factors. […] To avoid kinetic complexity associated with the transition state analyses for reversible reactions, the KIEs for the human MTAP were measured on the physiologically irreversible reaction of arsenolysis. The products of arsenolysis are adenine and 5-methylthioribose 1-arsenate. Methylthioribose 1-arsenate is unstable and rapidly decomposes to form methylthioribose and arsenate.
Where ^T(V/K) is an observed tritium isotope effect, Cf is the forward commitment to catalysis. The intrinsic KIEs were obtained by correcting the observed KIEs (column 3, Table 1) for the forward commitment.

S. pneumoniae MTAN = S. pneumoniae MTAN (Streptococcus pneumoniae, UniProt Q8DQ16); conditions: S. pneumoniae MTAN (Singh et al., 2005a); cited from earlier work
Sequence of S. pneumoniae MTAN (Q8DQ16 entry or part of it): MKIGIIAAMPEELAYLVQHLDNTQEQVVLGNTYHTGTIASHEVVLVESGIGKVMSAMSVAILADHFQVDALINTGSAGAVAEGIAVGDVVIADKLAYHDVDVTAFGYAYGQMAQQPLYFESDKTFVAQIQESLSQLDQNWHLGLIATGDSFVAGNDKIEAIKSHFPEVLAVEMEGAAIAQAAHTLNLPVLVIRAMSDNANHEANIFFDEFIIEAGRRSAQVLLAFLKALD

E. coli MTAN = E. coli MTAN (Escherichia coli, UniProt P0AF12); conditions: E. coli MTAN (Singh et al., 2005a); cited from earlier work
Sequence of E. coli MTAN (P0AF12 whole entry): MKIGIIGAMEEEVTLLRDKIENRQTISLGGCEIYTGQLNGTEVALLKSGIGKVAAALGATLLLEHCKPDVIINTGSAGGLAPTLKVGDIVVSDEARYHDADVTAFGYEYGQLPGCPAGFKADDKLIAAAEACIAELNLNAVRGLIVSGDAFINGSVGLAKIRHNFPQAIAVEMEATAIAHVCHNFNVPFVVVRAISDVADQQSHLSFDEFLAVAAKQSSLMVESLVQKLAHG

## CSC[C@H]1O[C@@H](n2cnc3c(N)ncnc32)C[C@@H]1O [2′-deoxy MTA]
Human MTAP [1]
  kcat: 0.28 s⁻¹
  fold increase in Km relative to MTA: ~2 fold

## CSC[C@@H]1C[C@@H](O)[C@H](n2cnc3c(N)ncnc32)O1 [3′-deoxy MTA]
Human MTAP [2]
  fold decrease in kcat relative to MTA: ~1000 fold
Human MTAP [1]
  kcat: 0.004 s⁻¹
  fold increase in Km relative to MTA: ~2 fold

## [3H]C1(n2cnc3c(N)ncnc32)OC(CSC)C(O)C1O (stereo not shown) [[1′-^3H], [1′-^3H]MTA]
Human MTAP [3]
  KIE (experimental): 1.290 ± 0.003
  Intrinsic KIEs: 1.350 ± 0.003
Human MTAP [3]; listed as 1′-^3H
  Intrinsic KIEs: 1.35

## CSC[C@H]1O[14C@@H](n2cnc3c(N)ncnc32)[C@H](O)[C@@H]1O [[1′-^14C], [1′-^14C]MTA]
Human MTAP [3]
  KIE (experimental): 1.025 ± 0.005^b
  Intrinsic KIEs: 1.030 ± 0.005
Human MTAP [3]; listed as 1′-^14C
  Intrinsic KIEs: 1.029
Human MTAP [3]; listed as 1′-^14C MTA
  Intrinsic KIEs: 1.029

## [3H][C@@]1(O)[C@H](O)[C@@H](CSC)O[C@H]1n1cnc2c(N)ncnc21 [[2′-^3H], [2′-^3H]MTA]
Human MTAP [3]
  KIE (experimental): 1.063 ± 0.003
  Intrinsic KIEs: 1.076 ± 0.003
Human MTAP [3]; listed as 2′-^3H
  Intrinsic KIEs: 1.076

## [3H][C@]1(CSC)O[C@@H](n2cnc3c(N)ncnc32)[C@H](O)[C@@H]1O [[4′-^3H], [4′-^3H]MTA]
S. pneumoniae MTAN
  intrinsic 4′-^3H KIE: 1.015
E. coli MTAN
  intrinsic 4′-^3H KIE: 1.010
Human MTAP [3]
  KIE (experimental): 1.037 ± 0.005
  Intrinsic KIEs: 1.045 ± 0.005
Human MTAP [3]; listed as 4′-^3H
  Intrinsic KIEs: 1.045

## [3H]C([3H])(SC)[C@H]1O[C@@H](n2cnc3c(N)ncnc32)[C@H](O)[C@@H]1O [[5′-^3H], [5′-^3H]MTA]
Human MTAP [3]
  KIE (experimental): 1.038 ± 0.001
  Intrinsic KIEs: 1.046 ± 0.001
Human MTAP [3]; listed as [5′-^3H2] MTA
  Intrinsic KIEs: 1.046

## CS[14CH2][C@H]1O[C@@H]([15n]2cnc3c(N)ncnc32)[C@H](O)[C@@H]1O [[9-^15N/5′-^14C]]
Human MTAP [3]
  KIE (experimental): 1.031 ± 0.002^c
  Intrinsic KIEs: 1.037 ± 0.002
Human MTAP [3]; listed as 9-^15N
  Intrinsic KIEs: 1.037 and 1.036
Human MTAP [3]; listed as 9-^15N MTA
  Intrinsic KIEs: 1.037
Human MTAP [3]; listed as 15N9
  Intrinsic KIEs: 1.036

## [3H]C([3H])([3H])SC[C@H]1O[C@@H](n2cnc3c(N)ncnc32)[C@H](O)[C@@H]1O [[Me-^3H], [methyl-^3H3]MTA]
Human MTAP [3]
  KIE (experimental): 1.073 ± 0.002
  Intrinsic KIEs: 1.086 ± 0.002
Human MTAP [3]; listed as [Me-^3H3] MTA
  Intrinsic KIEs: 1.086
